Reference: patent US20230301988A1 (priority 2020, published 2023)
Residues, ends and D or L forms follow the SMILES beside them.

Tests used:
cathepsin B = cathepsin B (Homo sapiens, UniProt P07858); assay: Kinetic assay for cathepsin B; assay type: biochemical; settings: substrate, pH 5.5, 25° C.
cathepsin S = cathepsin S (Homo sapiens, UniProt P25774); assay: Kinetic assay for cathepsin S; assay type: biochemical
Protocol: (§1) For assays of cathepsin B, L, and S, cruzain inhibitors were evaluated in reaction mixtures containing a buffer of sodium acetate (pH 5.5), 1 mM CHAPS, 1 mM Na2EDTA, and 5 mM DTT at 25° C. The substrate Cbz-Phe-Arg-AMC was dissolved in 100% DMSO, as were all inhibitors, and aliquots of both substrates and inhibitors were added to 0.25 mL reaction mixtures to final concentrations of 10% DMSO (v/v). […] Cruzain inhibitors were added at seven concentrations and one fixed concentration of Cbz-Phe-Arg-AMC, and time courses of AMC formation were analyzed as with cruzain.

cathepsin L [1] = molecular target: T1, cathepsin L (Homo sapiens, UniProt P07711); assay: Kinetic assay for cathepsin L; assay type: biochemical
T1 sequence (P07711 114-333): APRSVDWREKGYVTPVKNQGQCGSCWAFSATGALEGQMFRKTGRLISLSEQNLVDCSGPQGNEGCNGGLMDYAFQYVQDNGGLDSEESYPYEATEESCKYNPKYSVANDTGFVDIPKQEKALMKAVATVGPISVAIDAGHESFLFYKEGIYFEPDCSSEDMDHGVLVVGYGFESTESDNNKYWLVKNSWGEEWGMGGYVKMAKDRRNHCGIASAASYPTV
Protocol: as §1

Vero E6 cells [2] = assay: Azide enrichment and proteomic analysis of K11777-alkyne treated Vero E6 cells; assay type: cell-based, African green monkey
Protocol: Cell lysates of Vero E6 cells were prepared as described above. Enrichment of alkyne-modified proteins was conducted using the Click-&-Go Protein Enrichment Kit (Click Chemistry Tools) and the protocols thereof. Proteolysis of the resin-bound, enriched proteins, which had been reduced with DTT and alkylated with iodoacetamide, was conducted by addition of 1 μg of Trypsin Gold (Promega) at 37° C. overnight with gentle agitation. The digested peptides were then eluted from the column and subjected to desalting using Pierce™ C18 Tips, 100 μL bed (Thermo Fisher Scientific). The desalted peptides were concentrated to dryness via speed vacuum centrifugation, and suspended in 25 mM ammonium bicarbonate. […]
Data were processed using MaxQuant 1.6.14. Label-free quantification was enabled at the default parameters. […] MaxQuant result files were analyzed using Perseus 1.6.14. Reverse hits, potential contaminant hits, hits only identified by site and hits for which only one peptide was detected were removed. Only proteins which were not detected in the control were considered. […] Finally, proteins which were detected in at least two test samples were clustered based on highest to lowest intensity in the 5 μM and 10 μM treated columns at default parameters (column clustering was disabled) and plotted as a heat map.

Vero E6 cells [3] = assay: Bio-orthogonal labeling of protein targets in Vero E6 cells, in-gel fluorescence; assay type: cell-based, African green monkey; settings: for labelling of the 24-25-kDa protein by K11777-alkyne after pre-treatment: pre-treatment 1 μM K777, 1 μM K777 alkyne, SARS-CoV-2 infected and uninfected cells
Protocol: 4N-propargyl-K11777 was added at concentrations of 1-10 µM to Vero E6 (African green monkey kidney cells), with and without infection by SARS CoV-2 viral particles at an multiplicity of infection of 0.1. […] Cells growth continued for 4 days, followed by harvest, and ˜ 20 million cells were suspended in 1 mL of lysis buffer (200 mM Tris, 4% CHAPS, 1M NaCl, 8 M Urea, pH=8) and protease inhibitor cocktail (Sigma Aldrich) at a ratio of 50:1 (v/v). Cells were lysed by sonication (ThermoFisher Scientific), with the sample on ice, with a ⅛-inch probe at 20% amplitude for 3-seconds, three times with a minute delay between pulses. The cell debris was pelleted (10,000×g for 10 minutes) followed by removal of the supernatant and determination of protein concentration by BCA assay (ThermoFisher Scientific). Labeling of the K11777-alkyne-treated cells was performed in a stepwise fashion whereby 100 mM TBTA in 1:4 DMSO: n-butanol (v/v) was added to 1 mM CuSO4 in water, followed by the addition of 20 mM Cy7-azide (Click Chemistry Tools) in DMSO, 24 μg cell lysate, and finally 2.5 mM sodium ascorbate in water. This reaction was incubated at room temperature for 1-3 hours and quenched by the addition ice-cold methanol (200 μL), chloroform (75 μL), and water (150 μL) followed by vortexing and centrifugation at 15,000 RPM at 4° C. for 15 minutes. […] Then, 4× loading dye (240 mM Tris-HCl, 8% SDS (w/v), 0.004% bromophenol blue (to avoid fluorescence from the dye), 5 mM DTT, and MilliQ water was added to a total volume of 24 μL. Samples were heated to 95° C. for 5 minutes followed by a brief centrifugation at 5,000 RPM for 1 min. The protein-standards ladder (Bio-Rad, Precision Plus Protein™ Dual Color Standards) was diluted 10,000 fold in 4% SDS buffer, loading dye, and water and loading dye 4× loading dye and water to avoid strong fluorescence from the ladder during imaging. Samples were analyzed on a 12% Bis-Tris Nu-PAGE gel (Invitrogen). […] Densitometry of in gel fluorescence was conducted using ImageJ. The gels were also analyzed by Coomassie Brilliant Blue R-250 staining (Bio-Rad).

pseudovirus SARS CoV-1 = settings: cited from earlier work
host cells = assay: Toxicity in host cells
cathepsin L [4] = molecular target: T1, cathepsin L; assay: Proteolysis of SARS CoV-2 Spike protein by cathepsin L; assay type: biochemical; settings: pH 5.5
cruzain = cruzain (Trypanosoma cruzi, UniProt P25779); assay: Cruzain inactivation; assay type: biochemical
cruzain, sequence (P25779 123-337): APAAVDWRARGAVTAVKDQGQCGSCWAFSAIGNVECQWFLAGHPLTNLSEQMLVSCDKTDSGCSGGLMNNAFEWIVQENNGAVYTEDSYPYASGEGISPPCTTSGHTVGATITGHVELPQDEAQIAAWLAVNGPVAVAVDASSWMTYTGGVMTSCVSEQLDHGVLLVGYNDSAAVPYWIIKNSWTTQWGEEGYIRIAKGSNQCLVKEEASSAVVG

cathepsin S, sequence (P25774 115-331): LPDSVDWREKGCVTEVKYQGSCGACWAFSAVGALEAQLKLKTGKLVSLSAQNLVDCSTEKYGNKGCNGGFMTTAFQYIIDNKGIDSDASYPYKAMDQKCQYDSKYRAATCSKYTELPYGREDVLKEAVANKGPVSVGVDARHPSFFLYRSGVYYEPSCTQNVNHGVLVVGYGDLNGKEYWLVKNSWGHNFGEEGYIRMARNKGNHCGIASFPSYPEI

Cc1cc(=O)oc2cc(NC(=O)[C@H](CCCN=C(N)N)NC(=O)[C@H](Cc3ccccc3)NC(=O)OCc3ccccc3)ccc12 [Cbz-Phe-Arg-AMC, reference compound] (HELM PEPTIDE1{[O=C(OCc1ccccc1)[*:2]].F.R.[Cc1cc(=O)oc2cc(N[*:1])ccc12]}$$$$V2.0)
Michaelis constant (cathepsin B): 150 µM
Michaelis constant (cathepsin S; substrate, pH 5.5, 25° C.): 60 µM
Michaelis constant (cathepsin L [1]; substrate, pH 5.5, 25° C.): 2.9 µM

C#CCN1CCN(C(=O)N[C@@H](Cc2ccccc2)C(=O)N[C@H](/C=C/S(=O)(=O)c2ccccc2)CCc2ccccc2)CC1 [N4-Propargyl-K11777, N-((S)-1-oxo-3-phenyl-1-(((S,E)-5-phenyl-1-(phenylsulfonyl)pent-1-en-3-yl)amino)propan-2-yl)-4-(prop-2-yn-1-yl)piperazine-1-carboxamide]
most enriched labeled proteins (bead capture, mass spectrometry) (Vero E6 cells [2]; listed as K777 alkyne): cathepsins B and L are strongly enriched
most enriched labeled proteins (bead capture, mass spectrometry) (Vero E6 cells [2]; listed as N4-propargyl analogue of K11777): cathepsins L and B
proteins labeled in Vero E6 cells (Vero E6 cells [3]; infected and un-infected with CoV-2, Cy7 azide): labels only cellular proteins of an apparent molecular weight of 24-25 kDa

CN1CCN(C(=O)N[C@@H](Cc2ccccc2)C(=O)N[C@H](/C=C/S(=O)(=O)c2ccccc2)CCc2ccccc2)CC1 [K11777, 4-methyl-N-((S)-1-oxo-3-phenyl-1-(((S,E)-5-phenyl-1-(phenylsulfonyl)pent-1-en-3-yl)amino)propan-2-yl)piperazine-1-carboxamide]
infection of Vero, A549 and other mammalian cells by pseudovirus SARS CoV-1 (pseudovirus SARS CoV-1): exceptionally potent inhibitor
toxicity in host cells (host cells): No toxicity
labelling of the 24-25-kDa protein by K11777-alkyne after pre-treatment (Vero E6 cells [3]): prevented labelling
labelling of the 24-25-kDa protein by K11777-alkyne after pre-treatment (Vero E6 cells [3]; listed as K777): blocked
cathepsin L-catalyzed proteolysis of SARS CoV-2 Spike protein (cathepsin L [4]): blocked
cathepsin L-catalyzed proteolysis of SARS CoV-2 Spike protein (cathepsin L [4]; listed as K777): inhibited
inactivation of cathepsin S (cathepsin S): exceptionally potent, covalent inactivator
inactivation of cruzain (cruzain): exceptionally potent, covalent inactivator
inactivation of cathepsin L (cathepsin L [1]): exceptionally potent, covalent inactivator
